Experimental data published in US6737383B1, “Herbicidal oxadiazolidines” (priority 1999, dated 2004).

Columns and labels:
purple nutsedge = assay: Test B pre/postemergence purple nutsedge; assay type: in vivo, Cyperus rotundus
Procedure, shortened: (§1)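 Herbicidal effect was estimated by eye on a ten-point control scale after plants spent twelve to sixteen days in a greenhouse following soil or foliar treatment. Foliar sprays targeted plants at one to four leaves; all doses were formulated in a non-phytotoxic solvent with surfactant.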

soybean = assay: Test B pre/postemergence soybean; assay type: in vivo, Glycine max
Procedure, shortened: as §1

wheat = assay: Test B pre/postemergence wheat; assay type: in vivo, Triticum aestivum; details: for Plant response rating, Wheat: Rate 250 g/ha
Procedure, shortened: as §1

sugar beet = assay: Test B pre/postemergence sugar beet; assay type: in vivo, Beta vulgaris; details: for Plant response rating, Sugarbeets: Rate 250 g/ha
Procedure, shortened: as §1

giant foxtail = assay: Test B pre/postemergence giant foxtail; assay type: in vivo, Setaria faberii
Procedure, shortened: as §1

smallflower flatsedge = assay: Test B flood test smallflower flatsedge; assay type: in vivo, Cyperus difformis
Procedure, shortened: (§2)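 Flood test on plants grown to the 2-leaf stage; treated plants kept in greenhouse twelve to sixteen days, then visually rated against controls on a 0 (no effect) to 10 (complete control) scale.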

blackgrass = assay: Test B pre/postemergence blackgrass; assay type: in vivo, Alopecurus myosuroides
Procedure, shortened: as §1

bamyardgrass = assay: Test B flood test barnyardgrass; assay type: in vivo, Echinochloa crus-galli
Procedure, shortened: as §2

duck salad = assay: Test B flood test duck salad; assay type: in vivo, Heteranthera limosa
Procedure, shortened: as §2

surinam grass = assay: Test B pre/postemergence surinam grass; assay type: in vivo, Brachiaria decumbens
Procedure, shortened: as §1

crabgrass = assay: Test B pre/postemergence crabgrass; assay type: in vivo, Digitaria sanguinalis
Procedure, shortened: as §1

cocklebur = assay: Test B pre/postemergence cocklebur; assay type: in vivo, Xanthium strumarium
Procedure, shortened: as §1

rice = assay: Test B flood test rice; assay type: in vivo, Oryza sativa
Procedure, shortened: as §2

rape = assay: Test B pre/postemergence rape; assay type: in vivo, Brassica napus
Procedure, shortened: as §1

corn = assay: Test B pre/postemergence corn; assay type: in vivo, Zea mays
Procedure, shortened: as §1

pigweed = assay: Test B pre/postemergence pigweed; assay type: in vivo, Amaranthus retroflexus
Procedure, shortened: as §1

[1] = Postemergence, Rate 62 g/ha, scale 0 to 10, 0 is no effect, 10 is complete control
[2] = Postemergence, Rate 125 g/ha, scale of 0 to 10 where 0 is no effect and 10 is complete control
[3] = Postemergence, Rate 250 g/ha, scale 0 to 10, 0 no effect, 10 complete control
[4] = Preemergence, Rate 62 g/ha, scale 0 to 10 (0 no effect, 10 complete control)
[5] = Preemergence, Rate 125 g/ha, scale 0 to 10 (0 no effect, 10 complete control)
[6] = Preemergence, Rate 250 g/ha, scale of 0 to 10 where 0 is no effect and 10 is complete control
[7] = Preemergence, Rate 500 g/ha, scale 0 (no effect) to 10 (complete control)
[8] = Rate 500 g/ha, Postemergence, scale 0 to 10, 0 no effect, 10 complete control
[9] = Preemergence, Rate 125 g/ha, 0 is no effect, 10 is complete control
[10] = Preemergence, scale of 0 to 10 where 0 is no effect and 10 is complete control
[11] = Postemergence, scale 0 to 10, 0 is no effect, 10 is complete control
[12] = Postemergence (flood test species), Rate 125 g/ha, scale of 0 to 10 where 0 is no effect and 10 is complete control
[13] = Rate 250 g/ha, Postemergence (flood test), scale 0 to 10, 0 is no effect, 10 is complete control
[14] = Rate 500 g/ha, listed under Postemergence (flood test species), scale 0 to 10, 0 no effect, 10 complete control
[15] = flood test, listed under Postemergence, Rate 250 g/ha, scale 0 to 10, 0 no effect, 10 complete control

CC(C)N(C(=O)n1oc(=O)n(-c2cnn(C)c2Cl)c1=O)c1ccc(F)cc1 [Compound 97]
Nutsedge plant response rating (purple nutsedge; [1]): 0
Nutsedge plant response rating (purple nutsedge; [2]): 0
Nutsedge plant response rating (purple nutsedge; [3]): 0
Nutsedge plant response rating (purple nutsedge; [4]): 0
Plant response rating, Nutsedge (purple nutsedge; [5]): 0
Plant response rating, Nutsedge (purple nutsedge; [6]): 0
Nutsedge plant response rating (purple nutsedge; [7]): 0
Nutsedge plant response rating (purple nutsedge; [8]): 0
Soybean plant response rating (soybean; [1]): 0
Soybean plant response rating (soybean; [2]): 0
Soybean plant response rating (soybean; [4]): 0
Plant response rating, Soybean (soybean; [5]): 0
Plant response rating, Soybean (soybean; [6]): 0
Soybean plant response rating (soybean; [7]): 2
Plant response rating, Soybean (soybean; Rate 250 g/ha, Postemergence, scale 0 to 10, 0 is no effect, 10 is complete control): 1
Soybean plant response rating (soybean; [8]): 2
Wheat plant response rating (wheat; [1]): 0
Wheat plant response rating (wheat; [2]): 0
Wheat plant response rating (wheat; [4]): 0
Wheat plant response rating (0 to 10 scale) (wheat; [9]): 0
Plant response rating, Wheat (wheat; [10]): 0
Wheat plant response rating (wheat; [7]): 2
Plant response rating, Wheat (wheat; [11]): 0
Wheat plant response rating (wheat; [8]): 0
Sugarbeets plant response rating (sugar beet; [1]): 0
Sugarbeets plant response rating (sugar beet; [2]): 0
Sugarbeets plant response rating (sugar beet; [4]): 0
Sugarbeets plant response rating (0 to 10 scale) (sugar beet; [9]): 3
Plant response rating, Sugarbeets (sugar beet; [10]): 5
Sugarbeets plant response rating (sugar beet; [7]): 9
Plant response rating, Sugarbeets (sugar beet; [11]): 0
Sugarbeets plant response rating (sugar beet; [8]): 0
Giant foxtail plant response rating (giant foxtail; [1]): 0
Giant foxtail plant response rating (giant foxtail; [2]): 0
Giant foxtail plant response rating (giant foxtail; [3]): 3
Giant foxtail plant response rating (giant foxtail; [4]): 0
Plant response rating, Giant foxtail (giant foxtail; [5]): 3
Plant response rating, Giant foxtail (giant foxtail; [6]): 4
Giant foxtail plant response rating (giant foxtail; [7]): 8
Giant foxtail plant response rating (giant foxtail; [8]): 4
S. Flatsedge plant response rating (smallflower flatsedge; [12]): 0
S. Flatsedge plant response rating (smallflower flatsedge; [1]): 0
Plant response rating, S. Flatsedge (smallflower flatsedge; [13]): 0
S. Flatsedge plant response rating (smallflower flatsedge; [14]): 2
Blackgrass plant response rating (blackgrass; [1]): 0
Blackgrass plant response rating (blackgrass; [2]): 0
Blackgrass plant response rating (blackgrass; [3]): 3
Blackgrass plant response rating (blackgrass; [4]): 0
Plant response rating, Blackgrass (blackgrass; [5]): 1
Plant response rating, Blackgrass (blackgrass; [6]): 1
Blackgrass plant response rating (blackgrass; [7]): 3
Blackgrass plant response rating (blackgrass; [8]): 5
Barnyardgrass plant response rating (bamyardgrass; [1]): 0
Barnyardgrass plant response rating (bamyardgrass; Rate 125 g/ha, Postemergence section (flood test species), scale 0 to 10, 0 no effect, 10 complete control): 0
Barnyardgrass plant response rating (bamyardgrass; [14]): 0
Barnyardgrass plant response rating (bamyardgrass; [15]): 0
Ducksalad plant response rating (duck salad; [12]): 0
Ducksalad plant response rating (duck salad; [1]): 0
Ducksalad plant response rating (duck salad; [14]): 2
Ducksalad plant response rating (duck salad; [15]): 2
B. signalgrass plant response rating (surinam grass; [1]): 0
B. signalgrass plant response rating (surinam grass; [3]): 0
B. signalgrass plant response rating (surinam grass; [4]): 0
Plant response rating, B. signalgrass (surinam grass; [5]): 2
Plant response rating, B. signalgrass (surinam grass; [6]): 3
B. signalgrass plant response rating (surinam grass; [7]): 4
B. signalgrass plant response rating (surinam grass; Rate 125 g/ha, Postemergence, scale 0 to 10, 0 no effect, 10 complete control): 0
B. signalgrass plant response rating (surinam grass; Rate 500 g/ha, Postemergence, scale of 0 to 10 where 0 is no effect and 10 is complete control): 0
Crabgrass plant response rating (crabgrass; [1]): 0
Crabgrass plant response rating (crabgrass; [2]): 2
Crabgrass plant response rating (crabgrass; [3]): 4
Crabgrass plant response rating (crabgrass; [4]): 0
Plant response rating, Crabgrass (crabgrass; [5]): 0
Plant response rating, Crabgrass (crabgrass; [6]): 1
Crabgrass plant response rating (crabgrass; [7]): 4
Cocklebur plant response rating (cocklebur; [1]): 0
Cocklebur plant response rating (cocklebur; [2]): 0
Cocklebur plant response rating (cocklebur; [3]): 1
Cocklebur plant response rating (cocklebur; [4]): 0
Plant response rating, Cocklebur (cocklebur; [5]): 0
Plant response rating, Cocklebur (cocklebur; [6]): 0
Cocklebur plant response rating (cocklebur; [7]): 0
Cocklebur plant response rating (cocklebur; [8]): 1
Rice plant response rating (rice; [12]): 0
Rice plant response rating (rice; [1]): 0
Plant response rating, Rice (rice; [13]): 0
Rice plant response rating (rice; [14]): 3
Rape plant response rating (rape; [1]): 0
Rape plant response rating (rape; [2]): 0
Rape plant response rating (rape; [3]): 0
Rape plant response rating (rape; [4]): 0
Plant response rating, Rape (rape; [5]): 0
Plant response rating, Rape (rape; [6]): 5
Rape plant response rating (rape; [7]): 6
Rape plant response rating (rape; [8]): 3
Corn plant response rating (corn; [1]): 0
Corn plant response rating (corn; [2]): 0
Corn plant response rating (corn; [3]): 0
Corn plant response rating (corn; [4]): 0
Plant response rating, Corn (corn; [5]): 0
Plant response rating, Corn (corn; [6]): 0
Corn plant response rating (corn; [7]): 0
Corn plant response rating (corn; [8]): 0
Redroot pigweed plant response rating (pigweed; [1]): 0
Redroot pigweed plant response rating (pigweed; [2]): 0
Redroot pigweed plant response rating (pigweed; [4]): 0
Plant response rating, Redroot pigweed (pigweed; [6]): 4
Redroot pigweed plant response rating (pigweed; [7]): 10
Redroot pigweed plant response rating (pigweed; [8]): 5
